# Measured values taken from patent publication US8404665B2, “In vivo use of glutathione S-transferase activated nitric oxide donors” (University of Utah Research Foundation, priority 2002, dated 2013).
# Read-outs that look alike come from different tables or passages of the source.
# Test system: HL-60 cells
# Experiment: HL-60 leukemia cell growth (Coulter counter or MTT assay)
# Assay type: cell-based, human
# Conditions: for effect on cell growth: HL-60, NAC 0.3-0.5 mM or BSO 0.2-0.3 mM alone; for inhibition of cell growth: HL-60 screen; for IC50: Homo sapiens
# Experimental: Cell Lines and Culture Conditions. HL-60, DLD1, and U937 cells were obtained from ATCC (Rockville, Md.). Meth A cells were from Dr. Wolfram Samlowski (University of Utah, Salt Lake City, Utah). The PPC-1 cell line was provided by Dr. Graeme Bolger (University of Alabama, Birmingham, Ala.). For the cell growth and apoptosis experiments, cells were cultured at a density of 150,000 cells/ml in RPMI-1640 with 10% fetal bovine serum at 37° C. in a 5% CO2 humidified atmosphere. Agents were added at the indicated concentrations 24 h after culture initiation. At the indicated time intervals, cells were harvested and washed twice in phosphate buffered saline (PBS) prior to processing for analysis of growth, differentiation, and apoptosis.
# Cell Growth, Differentiation and Apoptosis Assays. The number of viable cells was determined using the MTT assay according to the manufacturer's protocol (Promega, Madison, Wis.) or using a Coulter counter. Briefly, a MTT assay is an analytical technique that uses the dye dimethylthiazolyl-diphenyltetrazolium (MTT) which turns from yellow to brownish-purple as it is reduced in the mitochondria of living cells. The assay is useful in calorimetric quantitation of cell viability and proliferation. In contrast, cell differentiation was evaluated using Wright and Non-Specific Esterase (NSE) staining of cells collected on microscope slides by cytospin as previously described (Magrinat, G. et al. (1992) Blood 80: 1880-1884). Apoptosis was assayed by flow cytometry and by determining DNA fragmentation using agarose gel electrophoresis as previously described (Shami, P. J. et al. (1998) Leukemia 12: 1461-1466). For the flow cytometry assay, we used the propidium iodide staining method of Nicoletti et al. (Nicoletti, I. et al. (1991) J. Immunol. Methods 139: 271-279).
# For the initial screen, HL60 cells were cultured in triplicate in RPMI1640/10% FBS under standard conditions. Compounds were added to the cultures at the following concentrations: 0, 0.1, 1, 10, and 100 micromolar (uM). Three days after addition of the compounds cell growth was determined either using a Coulter counter or using the MTT assay.
# The antiproliferative effects in the human AML (Acute Myeloid Leukemia) cell lines, HL-60 (myeloid leukemia) and U937 (monoblastic leukemia) cells were treated with JS-K for a period of 3 days, upon which cell growth was evaluated using a Coulter counter (CITY, STATE). JS-K was added to HL-60 cells at 0, 0.25, 0.5, 0.75, and 1.0 μM concentrations. […] Similar results were obtained in U937 cells under similar conditions.
# [1] = HL-60 assay system, comparison with chemotherapeutic agents, read-out: IC50, growth inhibition
smiles,measurement,setting,value
"CC(=O)N[C@@H](CS)C(=O)O [NAC, N-acetyl-L-cysteine, reference compound]",effect on cell growth,,did not appear to significantly affect cell growth
"O=[N+]([O-])c1ccc(ON=[N+]([O-])N2CCN(c3ncccn3)CC2)c([N+](=O)[O-])c1 [JXC-2-56, O^2-(2,4-dinitrophenyl) 1-[4-(pyrimidin-2-yl)piperazin-1-yl]diazen-1-ium-1,2-diolate]",inhibition of cell growth,,good inhibitors of cell growth
"COc1cc([C@@H]2c3cc4c(cc3[C@@H](O[C@@H]3O[C@@H]5CO[C@@H](C)O[C@H]5[C@H](O)[C@H]3O)[C@H]3COC(=O)[C@H]23)OCO4)cc(OC)c1O [etoposide, reference compound]",IC50,[1],0.3 µM
"O=[N+]([O-])c1ccc(Cl)c([N+](=O)[O-])c1 [1-Chloro-2,4-dinitrobenzene, reference compound]",IC50,"HL-60, read-out: IC50, growth inhibition",~6.7 µM
"CCCCS(=N)(=O)CCC(N)C(=O)O (stereo not shown) [BSO, buthionine sulfoximine, reference compound]",effect on cell growth,,did not appear to significantly affect cell growth
"O=[N+]([O-])c1ccc(ON=[N+]([O-])N2CCN(c3ccccc3)CC2)c([N+](=O)[O-])c1 [JXC-2-40, O^2-(2,4-dinitrophenyl) 1-[4-phenylpiperazin-1-yl]diazen-1-ium-1,2-diolate]",inhibition of cell growth,,good inhibitors of cell growth
"COc1cccc2c1C(=O)c1c(O)c3c(c(O)c1C2=O)C[C@@](O)(C(C)=O)C[C@@H]3O[C@H]1C[C@H](N)[C@H](O)[C@H](C)O1 [daunorubicin, reference compound]",IC50,[1],0.01 µM
